Results published in PubChem BioAssay AID179 (DTP/NCI, 2004).
Active and inactive are the calls of the source.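 The calls were made as follows: active = compounds giving half or more protection of infected cells from virus-caused growth loss, again on retest; inactive = the rest.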

Tested on: CEM cells HIV-1 protection, formazan growth assay
Assay: NCI AIDS Antiviral Assay
Settings: for IC50: measured here: growth of uninfected CEM cells
In short: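 Five concentrations of each compound were applied to infected and uninfected human CEM cells. Protection from HIV-1 was judged from growth measured with a soluble formazan assay.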

SMILES | EC50 [µM] | IC50 [µM] | outcome
Cc1c(Cl)cccc1NC(=O)C(=O)C1C(=O)CC(C)(C)CC1=O | > 741 | > 741 | 
O=c1c2ccccc2c2cc3ccc4c(=O)c5ccccc5c5cc6ccc1c2c6c3c45 | > 200 | > 200 | 
COC(=O)c1ccccc1/C=C1\Cc2ccc3c(c2C1=O)CCCC3 | > 200 | > 200 | 
Cc1nn(C(=O)c2ccc(Cl)cc2)c2c1C(c1ccco1)SC(N)=N2 (stereo not given) | 170 | > 200 | 
c1cc2sc3ccc(OCCCN4CCCCC4)cc3c2cc1OCCCN1CCCCC1 | > 93.3 | 1.58 | 
CC(C)=CCC[C@]1(C)C=Cc2c(O)c3c(c(CC=C(C)C)c2O1)O[C@]12C(=C[C@@H]4CC1C(C)(C)O[C@@]2(C/C=C(/C)C(=O)O)C4=O)C3=O | > 0.2 | 0.0631 | 
CC1(Br)CC2OC3(Br)C=CC(C)(O)C2(CC1=O)C3(C)C (stereo not given) |  |  | inactive
COc1cc(/C=C2\CCC(C)c3c2nc(N)c(C#N)c3-c2cc(OC)c(OC)c(OC)c2)cc(OC)c1OC (stereo not given) |  |  | inactive
Cc1cc(-c2ccc(N=Nc3cc(S(=O)(=O)O)c4cccnc4c3O)c(C)c2)ccc1N=Nc1cc(S(=O)(=O)O)c2cccnc2c1O | 60.3 | 85.1 | 
COc1cc2c(c(OC)c1OC)CCNC2C1=C(O)COC1=O (stereo not given) |  |  | inactive
COc1ccc(-c2c[se]c(=S)s2)cc1 | > 18.2 | > 18.2 | 
CCCCCn1c(=O)c2c(=O)[nH][nH]c2c2ccccc21 | > 200 | > 200 | 
O=C1/C(=C/c2cccc(Br)c2)Cc2ccccc21 | > 200 | 17 | 
CC(Oc1ccc2c(-c3ccc(Cl)cc3)cc(=O)oc2c1)C(=O)O (stereo not given) |  |  | inactive
COC(=O)c1cc(C(=CCC[C@H]2CC[C@@]3(C)C(CCC4C3CC[C@@]3(C)C4CC[C@@H]3C(C)CCCC(C)C)C2)c2cc(Cl)c(O)c(C(=O)OC)c2)cc(Cl)c1O (stereo not given in full) | > 200 | > 200 | 
COc1ccc(/C=C/c2cc(OC)c(OC)c(OC)c2)cc1O | > 10 | 0.145 | 
COC(=O)c1c(C(=O)OC)c2ccccn2c1-c1cc(OC)c(Br)c(=O)o1 | > 200 | > 200 | 
CCC12CCC3CCCCC3(OO1)[C@@H](OC)O2 (stereo not given in full) | > 51.3 | > 51.3 | 
N#CC(/C(=N/N=C(N)N)C(=O)Nc1ccccc1[N+](=O)[O-])c1nc(-c2ccc([N+](=O)[O-])cc2)cs1 (stereo not given) | > 27.5 | > 27.5 | 
COC(=O)Nc1cn2ccsc2n1 |  |  | inactive
Clc1ccc(/C=N/N=C(N/N=C/c2ccc(Cl)cc2Cl)N/N=C/c2ccc(Cl)cc2Cl)c(Cl)c1 | > 100 | > 100 | 
CC1CCC2(CC1)CC(=O)N(N1CCOCC1)C(=O)C2 | > 200 | > 200 | 
O=C(O)Cc1ccc(-n2nnc3c(=O)[nH][nH]c(=O)c32)cc1 | > 200 | > 200 | 

SMILES | EC50 [µM] | IC50 [µM] | outcome
CNS(=O)(=O)NN(C)S(=O)(=O)c1ccc(OC)cc1 | > 407 | 105 | 
C[C@@H]1CN2SN1C[C@@H]2C | > 1740 | > 1740 | 
O=C(CC(O)(c1ccccc1)c1ccc(Cl)cc1)NC(=O)c1ccccc1O (stereo not given) | > 13.2 | > 13.2 | 
CC(=C(C(=O)O)C(=O)O)c1cc(-c2cccs2)cc(-c2ccc(Cl)cc2)c1O | > 200 | 12.3 | 
O=C1c2ccccc2C(=O)N1n1c(Cc2ccc([N+](=O)[O-])cc2)n[nH]c1=O | > 200 | > 200 | 
NC(=O)CN(CC(N)=O)C(N)=O | > 724 | > 724 | 
CC/C(Cl)=N\OC(=O)NCc1ccc(F)cc1 | > 20 | 4.47 | 
OC(CC(O)(C(F)(F)Cl)C(F)(F)Cl)c1ccccc1 (stereo not given) | > 200 | 44.7 | 
CCOC(=O)c1nc2ccccc2nc1Nc1cc(OC)c(OC)c(OC)c1 | > 200 | > 200 | 
CC(=O)O[C@H]1C#C/C=C\C#CC[C@@H]2C(=O)N(C(=O)OC(C)(C)C)[C@@H]12 | > 20 | 1.12 | 
Cc1ccc(C2CC3(c4ccccc4)ON=C(c4ccccc4)N3c3ccccc3S2)cc1 (stereo not given) | > 200 | 41.7 | 
Cc1ccc(C(=O)/C=C/c2ccccc2)s1 | > 200 | 10.7 | 
CCOC1CC2OC(=O)C1C=C2C(=O)OC (stereo not given) |  |  | inactive
CCN(CC)C(=O)c1cc([N+](=O)[O-])c(=O)n2c1[nH]c1ccccc12 | > 200 | 151 | 
CN1CCC2(CC1)C(=NC1CCCCC1)NC(=O)N2c1ccccc1 | > 200 | > 200 | 
NCCN.NCCN.NCCN.O=C([O-])[C@@H](O)[C@@H](O)C(=O)[O-].[Cl-].[Co+3] | > 100 | > 100 | 
O=c1[nH]c2ncccc2c(=O)n1OS(=O)(=O)c1ccccc1 | > 200 | 135 | 
Cn1nc(C(N)=O)c(=O)[nH]c1=O | > 200 | > 200 | 
COc1cc2nc(Sc3c([N+](=O)[O-])ncn3C)[nH]c2cc1OC | > 389 | 5.5 | 
CCOC(=O)c1nc(SC)sc1NC(=O)c1ccc(Cl)cc1 | > 200 | 195 | 
OC1(c2ccccc2)c2ccccc2NC2=NCCN21 (stereo not given) | > 200 | 110 | 
O=C(NNC(=O)c1ccccc1O)c1ccccc1O | > 0.2 | 0.102 | 
NC(=S)N/N=C1\CC(c2ccccc2)Nc2ccccc21 (stereo not given) |  |  | inactive
